According to article PMC8156256, “Use of Half-Generation PAMAM Dendrimers (G0.5–G3.5) with Carboxylate End-Groups to Improve the DACHPtCl2 and 5-FU Efficacy as Anticancer Drugs” (Molecules, 2021):
Like-named read-outs stand apart in the source and are kept apart here.

Tests used:
[1] = tested on: calf thymus DNA (CT-DNA); experiment: DNA binding study by UV-vis spectroscopy (Benesi-Hildebrand); details: increasing CT-DNA 0-50 µM, 5 mM Tris-HCl/50 mM NaCl pH 7.4, 5 min incubation
Experimental: The stock solutions of DNA were directly prepared in this buffer. DNA purity was assessed by UV–vis spectroscopy using the absorbance values ratio at 260 nm and 280 nm (it should be between 1.8–1.9 to make sure it is sufficiently protein-free). […] The compounds and the CT-DNA were incubated for 5 min at room temperature. The absorbance was measured in a PerkinElmer UV–vis spectrometer Lambda equipment, using the buffer as blank. […] The intrinsic binding constant, Kb, of the compounds with DNA, was determined using the Benesi–Hildebrand equation [36]: A0/(A−A0) = εG/(εH-G − εG) + εG/(εH-G − εG) × 1/(Kb[DNA]), where Kb is the binding constant, [DNA] is the DNA concentration, A0 and A are the absorbance values of the free compound and compound–DNA complex, and εG and εH-G are their absorption coefficients, respectively. Binding constant values were then obtained from the ratio of the y-intercept to the slope in the plots A0/A−A0 vs. 1/[DNA]. Additionally, the Gibbs free energy (ΔG) associated with the process of DNA binding was calculated using the usual equation: ∆G = −RTlnKb, where T is the temperature in Kelvin and R the gas constant.

[2] = tested on: A2780 ovarian cancer cells; experiment: MTT cytotoxicity assay, A2780; assay type: cell-based, human; details: for IC50: MTT, 72 h, read-out: A2780 IC50 ± SD
Experimental: (§1) Several human cell lines were used in the cytotoxicity evaluation studies, namely: ovarian cancer cells (A2780), cisplatin-resistant ovarian cancer cells (A2780CisR), breast cancer cells (MCF-7), colorectal adenocarcinoma cells (CACO-2), and fibroblast cells (BJ, a non-cancer cell line). All cell lines were cultured in 96-well plates at a seeding density of 1 × 10^4 cells per well with a specific culture medium supplemented with 10% (v/v) fetal bovine serum (FBS) and 1% (v/v) antibiotic–antimycotic solution (AA, 100× solution) at 37 °C, in a humidified atmosphere and 5% CO2. Specific cell culture media were as follows: the A2780 and A2780CisR cell lines were cultured in RPMI 1640 medium supplemented with L-glutamine (2 mM), and 1% (w/v) of cisplatin (100 mM) in the case of A2780CisR cells (cisplatin was only used in the subculturing process before the cytotoxicity assays); the MCF-7 cell line was cultured in RPMI 1640 medium supplemented with 1 mM sodium pyruvate, 1% (v/v) nonessential amino acids (NEAA, 100× solution), and human insulin 3.3 µg/mL; the CACO-2 cell line was cultured in MEM medium supplemented with 1% (v/v) NEAA; the BJ cell line was cultured in D-MEM medium. After 24 h in culture, cells were incubated with the compounds under testing prepared in nuclease-free water. In all cases, 100 µL of the compound solution was used for a total volume of 200 µL in the well. The metallodendrimers cytotoxicity was evaluated using all the mentioned cell lines at the concentrations of 0.01, 0.03, 0.1, 0.5, 1, 2.5, 5, and 10 µM. Pristine anionic PAMAM dendrimers (G0.5–3.5) were used as controls. The cytotoxicity of the metallodendrimer G2.5COO(DACHPt)16/5-FU was evaluated using A2780CisR, and CACO-2 cells at the concentrations of 0.01, 0.2, 1, 5, 10 and 20 µg/mL, and G2.5(COONa)32/5-FU and free 5-FU were used as controls. After 72 h of incubation with the compounds under testing, the culture medium was replaced by new culture medium containing 10% (v/v) of a MTT (3-(4,5-dimethylthiazol-2-yl)-2,5-diphenyltetrazolium bromide) solution (0.5 mg/mL). After 3 h of incubation, the culture medium was aspirated, and the formed formazan crystals were dissolved in 100 µL of DMSO. Absorbance intensity was measured at 550 nm in a microplate reader (Victor3 1420, Perkin Elmer, Waltham, MA, USA). Three independent experiments with three replicas each were carried out. The concentration that inhibited 50% of the cellular metabolic activity (IC50) was determined by linear interpolation between the two experimental points closer to the point correspondent to 50% of the control’s cellular metabolic activity. Results are presented as the mean ± standard deviation (SD).

[3] = tested on: A2780CisR cisplatin-resistant ovarian cancer cells; experiment: MTT cytotoxicity assay, A2780cisR; assay type: cell-based, human; details: for Resistance Factor (Rf): IC50 A2780CisR / IC50 A2780; for IC50: MTT, 72 h, for 5-FU loaded systems MW includes the estimated number of 5-FU molecules, read-out: A2780cisR IC50 ± SD
Experimental: as §1

[4] = tested on: MCF-7 breast cancer cells; experiment: MTT cytotoxicity assay, MCF-7; assay type: cell-based, human; details: for IC50: MTT, 72 h, read-out: MCF-7 IC50 ± SD
Experimental: as §1

[5] = tested on: CACO-2 colorectal adenocarcinoma cells; experiment: MTT cytotoxicity assay, CACO-2; assay type: cell-based, human; details: for 5-FU loaded systems MW includes the estimated number of 5-FU molecules, read-out: CACO-2 IC50 ± SD
Experimental: All cell lines were cultured in 96-well plates at a seeding density of 1 × 10^4 cells per well with a specific culture medium supplemented with 10% (v/v) fetal bovine serum (FBS) and 1% (v/v) antibiotic–antimycotic solution (AA, 100× solution) at 37 °C, in a humidified atmosphere and 5% CO2. […] After 24 h in culture, cells were incubated with the compounds under testing prepared in nuclease-free water. In all cases, 100 µL of the compound solution was used for a total volume of 200 µL in the well. The metallodendrimers cytotoxicity was evaluated using all the mentioned cell lines at the concentrations of 0.01, 0.03, 0.1, 0.5, 1, 2.5, 5, and 10 µM. Pristine anionic PAMAM dendrimers (G0.5–3.5) were used as controls. The cytotoxicity of the metallodendrimer G2.5COO(DACHPt)16/5-FU was evaluated using A2780CisR, and CACO-2 cells at the concentrations of 0.01, 0.2, 1, 5, 10 and 20 µg/mL, and G2.5(COONa)32/5-FU and free 5-FU were used as controls. After 72 h of incubation with the compounds under testing, the culture medium was replaced by new culture medium containing 10% (v/v) of a MTT (3-(4,5-dimethylthiazol-2-yl)-2,5-diphenyltetrazolium bromide) solution (0.5 mg/mL). After 3 h of incubation, the culture medium was aspirated, and the formed formazan crystals were dissolved in 100 µL of DMSO. […] Three independent experiments with three replicas each were carried out.

[6] = tested on: BJ fibroblast cells (non-cancer cell line); experiment: MTT cytotoxicity assay, BJ; assay type: cell-based, human; details: 72 h, read-out: BJ IC50 ± SD
Experimental: Several human cell lines were used in the cytotoxicity evaluation studies, namely: ovarian cancer cells (A2780), cisplatin-resistant ovarian cancer cells (A2780CisR), breast cancer cells (MCF-7), colorectal adenocarcinoma cells (CACO-2), and fibroblast cells (BJ, a non-cancer cell line). All cell lines were cultured in 96-well plates at a seeding density of 1 × 10^4 cells per well with a specific culture medium supplemented with 10% (v/v) fetal bovine serum (FBS) and 1% (v/v) antibiotic–antimycotic solution (AA, 100× solution) at 37 °C, in a humidified atmosphere and 5% CO2. […] The metallodendrimers cytotoxicity was evaluated using all the mentioned cell lines at the concentrations of 0.01, 0.03, 0.1, 0.5, 1, 2.5, 5, and 10 µM. […] The cytotoxicity of the metallodendrimer G2.5COO(DACHPt)16/5-FU was evaluated using A2780CisR, and CACO-2 cells at the concentrations of 0.01, 0.2, 1, 5, 10 and 20 µg/mL, and G2.5(COONa)32/5-FU and free 5-FU were used as controls. […] Absorbance intensity was measured at 550 nm in a microplate reader (Victor3 1420, Perkin Elmer, Waltham, MA, USA). […]

[7] = tested on: red blood cells; experiment: Hemotoxicity (hemolysis) assay, cyanmethemoglobin method; assay type: cell-based; details: human blood; for hemolysis percentage (release of hemoglobin): 3 h, 37 °C, 5 µM
Experimental: Human blood from healthy donors was collected in tubes containing EDTA and used to evaluate the compounds’ hemotoxicity under testing towards red blood cells by the cyanmethemoglobin method. The total hemoglobin concentration in the original blood was determined starting from a 250-fold dilution of blood in cyanmethemoglobin reagent (the C reagent was prepared in an amber bottle with 50 mg of potassium ferricyanide, 12.5 mg of potassium cyanide, and 35 mg of potassium dihydrogen phosphate in 250 mL of distilled water with 250 µL of Triton-X; its pH was adjusted to 7.4). A standard curve for hemoglobin was then prepared with hemoglobin from bovine blood (Figure S34). Briefly, a stock solution of the protein (1.5 mg/mL) was first prepared in C reagent, from which serial dilutions were performed to obtain standards of known concentration (in the range 0.20 to 1.4 mg/mL). Absorbance was then measured at 550 nm, and the C reagent was used as blank. The total hemoglobin concentration was determined using this standard curve, taking into consideration the initial dilution. For hemotoxicity evaluation of the compounds under testing, a 10% (v/v) blood solution was prepared in PBS (Mg^2+/Ca^2+ free). Then, 10 µL of this blood solution was added to several microtubes containing 70 µL of compound solution (at the concentrations 0.1, 1, and 5 µM); for controls, microtubes with 70 µL of distilled water (positive control) and 70 µL of PBS (negative control) were also prepared. After, the microtubes were incubated at 37 °C for 3 h and subsequently centrifuged at 3800 rpm for 10 min. In the end, 40 µL of each supernatant were transferred to 96-well plates, 160 µL of C reagent was added, and absorbance was measured at 550 nm. The concentration of hemoglobin in the supernatants was then determined using the same standard curve and considering the performed dilutions. The results are presented as a percentage of hemolysis (mean of three independent assays) ± standard deviation (SD). A Perkin Elmer VICTOR^3™ Multilabel Reader spectrophotometer was used in this assay.

[8] = IC50 oxaliplatin / IC50 compound

Compound	Change in Absorbance [1]	Selectivity Index (SI) A2780 ([2]; IC50 BJ / IC50 A2780)	Relative Potency (RP) A2780 [2, 8]	IC50 [2]	Resistance Factor (Rf) [3]	Selectivity Index (SI) A2780CisR ([3]; IC50 BJ / IC50 A2780CisR)	Relative Potency (RP) A2780CisR [3, 8]	IC50 [3]	Selectivity Index (SI) MCF-7 ([4]; IC50 BJ / IC50 MCF-7)	Relative Potency (RP) MCF-7 [4, 8]	IC50 [4]	IC50 ([5]; 72 h)	IC50 [6]	hemolysis percentage (release of hemoglobin) [7]	IC50 ([3]; Homo sapiens, A2780cisR)	IC50 ([5]; Homo sapiens, Caco-2, 72 h)	hemolysis at 3 h ([7]; concentrations 0.1 and 1 µg/mL)
trans-(R,R)-1,2-diaminocyclohexanedichloroplatinum(II) [DACHPtCl2]	Hyperchromism	>32	1.7	0.3 ± 0.2 µM	6.2	>5.2	2	1.7 ± 0.4 µM	>1.7	>1.9	5 ± 2 µM	> 10 µM	> 9 µM	7–10%	–	–	–
O=C1[O][Pt]2([NH][C@@H]3CCCC[C@H]3[NH]2)[O]C1=O [Oxaliplatin, [(1R,2R)-cyclohexane-1,2-diamine] (ethanedioato-O,O′)platinum(II)]	Hyperchromism	–	–	0.48 ± 0.03 µM	7.2	–	–	3.5 ± 0.5 µM	–	–	> 10 µM	–	> 10 µM	around 12%	–	–	–
O=c1[nH]cc(F)c(=O)[nH]1 [5-FU, 5-fluoro-1H-pyrimidine-2,4-dione]	–	–	–	–	–	–	–	–	–	–	–	–	–	–	> 154 µM	> 154 µM	~5%
